Experiments:
[1] = tested on: MC38 colorectal carcinoma tumours; assay: MC38 syngeneic mouse tumour model (Example 8.1); conditions: MC38; for Body weight increase (%) / Non-treatment related death / Tumour growth inhibition (%): BID po
PANC1 cells = assay: TNF-sensitised cell viability assay (CellTiter-Glo); conditions: Homo sapiens, PANC-1, read-out: PANC IC50 (at 100 ng/ml rHuNF)
[2] = in vivo, po, 30 mg/kg
CSF1R = CSF1R (Homo sapiens (Human), UniProt P07333); type: biochemical; conditions: Kinase Profiler
Sequence of CSF1R (P07333 20-972 limits assumed): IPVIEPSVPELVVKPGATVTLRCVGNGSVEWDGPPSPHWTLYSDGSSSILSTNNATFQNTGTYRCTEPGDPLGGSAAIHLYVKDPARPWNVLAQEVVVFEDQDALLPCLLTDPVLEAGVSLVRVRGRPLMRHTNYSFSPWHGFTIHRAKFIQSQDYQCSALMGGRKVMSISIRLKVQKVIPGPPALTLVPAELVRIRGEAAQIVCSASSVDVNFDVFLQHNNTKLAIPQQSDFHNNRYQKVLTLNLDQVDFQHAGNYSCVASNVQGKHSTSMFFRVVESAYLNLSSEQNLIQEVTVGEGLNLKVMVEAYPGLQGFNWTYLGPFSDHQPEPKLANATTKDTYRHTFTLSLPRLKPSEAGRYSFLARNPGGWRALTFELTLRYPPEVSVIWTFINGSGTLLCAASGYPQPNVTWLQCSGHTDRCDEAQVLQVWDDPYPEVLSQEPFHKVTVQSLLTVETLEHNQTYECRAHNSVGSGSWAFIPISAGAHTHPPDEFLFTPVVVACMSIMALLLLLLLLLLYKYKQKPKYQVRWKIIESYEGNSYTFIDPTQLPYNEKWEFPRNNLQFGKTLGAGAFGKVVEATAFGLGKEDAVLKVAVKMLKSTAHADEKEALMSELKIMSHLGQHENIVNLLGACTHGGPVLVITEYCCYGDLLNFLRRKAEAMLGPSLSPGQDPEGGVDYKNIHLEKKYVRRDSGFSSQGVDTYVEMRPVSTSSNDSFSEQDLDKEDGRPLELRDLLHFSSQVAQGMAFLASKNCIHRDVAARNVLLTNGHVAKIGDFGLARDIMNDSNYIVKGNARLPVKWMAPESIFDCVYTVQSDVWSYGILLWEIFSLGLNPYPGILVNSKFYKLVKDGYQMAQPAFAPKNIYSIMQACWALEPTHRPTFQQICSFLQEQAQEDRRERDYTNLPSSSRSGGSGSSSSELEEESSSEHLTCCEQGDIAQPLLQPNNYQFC

MC38 tumour = assay: MC38 syngeneic tumour model, tumour growth and survival; type: in vivo, mice; conditions: E9 24 mg/kg BID compared to dasatinib 30 mg/kg QD
Protocol: Error bars SEM. X-axes: Days. Statistical significance was calculated with two-way ANOVA analysis including Tukey's multiple comparison analysis. ***p<0.001; (B) Body weight kinetics of the mice in (A). Y-axis: Mean body weight change (%).
Y-axis=Mean tumour volume (mm3). […] X-axis=Days. […] X-axis: Days.
Left hand column=compound treatment group; and right hand column=vehicle treatment group. Y axes=Tumour volume (mm3); X axes=Days after inoculation.
FIG. 29: depicts the effect of compound E9 and anti PD-1 mAB (alone or in combination) on in vivo tumour growth (mean+/−SEM) in a MC38 syngeneic tumour model. (A) Y axes=Tumour volume (mm3); X axes=Days after start of therapy. Vehicle+anti PD-1 mAB (squares), vehicle+mIgG1e ctr (circles), E9+anti PD-1 mAB (inverted triangles), and E9+mIgG1e ctr (triangles). (B) Median overall survival.) Y axes=Probability of survival (%); X axes=Days after start of therapy. Vehicle+anti PD-1 mAB (grey/dashed), vehicle+mIgG1e ctr (black/solid), E9+anti PD-1 mAB (grey/solid), and E9+mIgG1e ctr (black/dashed). […] (C) E9 25 mg/kg BID; (D) aPD-1 2.5 mg/kg; (E) E9 50 mg/kg BID+aPD-1 2.5 mg/kg; and (F) vehicle.

[3] = Murine plasma protein binding
[4] = tested on: MC38 murine tumour cell line; assay: TNF-sensitised cell viability assay (CellTiter-Glo); conditions: Mus musculus
[5] = tested on: NFKB activity in MC38 cells; assay: TNF-induced NFKB activity (NFKB-dependent luciferase reporter); conditions: 10 ng/ml rMuTNF
[6] = female, C57BL/6, mouse, in vivo, 7 days

Cc1nc(Nc2ncc(C(=O)Nc3c(CF)csc3Cl)s2)cc(N2CCN(C)CC2)n1 [Compound E9, N-(2-chloro-4-(fluoromethyl)thiophen-3-yl)-2-((2-methyl-6-(4-methylpiperazin-1-yl)pyrimidin-4-yl)amino)thiazole-5-carboxamide]
Body weight increase (%) ([1]; 25 mg/Kg): 16.8%
Non-treatment related death ([1]; 25 mg/Kg): 2/16
Tumour growth inhibition (%) ([1]; 25 mg/Kg): 74%
average TGI ([1]; 25 mg/kg BID): 72%
Body weight increase (%) ([1]; 50 mg/Kg): 18.7%
Non-treatment related death ([1]; 50 mg/Kg): 3/16
Tumour growth inhibition (%) ([1]; 50 mg/Kg): 69%
IC50 (PANC1 cells): < 0.1 µM
% AUCextrap, Free ([2]; male, CD1, mouse): 0.49%
% AUCextrap, Total ([2]; male, CD1, mouse): 0.49%
AUCinf (nM*h), Free ([2]; male, CD1, mouse): 239.92 nM·h
AUClast (nM*h), Free ([2]; male, CD1, mouse): 238.75 nM·h
Rsq, Free ([2]; mouse): 0.84
Rsq, Total ([2]; mouse): 0.84
CSF1R residual activity (CSF1R): less than 1%
tumour growth inhibition (MC38 tumour): superior and more uniform tumour growth inhibition
Murine plasma protein binding, Percentage unbound (%) ([3]; Table 5.1A): 1%
recovery at 4 h ([3]; mouse, plasma): 88%
IC50 ([4]; MC-38, read-out: MC38 IC50 (at 100 ng/mL rMuTNF)): < 0.1 µM
EC50 ([4]; MC-38, read-out: mean EC50 of sensitising MC38 tumour cells to TNF-mediated killing): < 0.1 µM
Inhibition of NFKB activity (MC38) [5]: ++
DLT@BID dosing [6]: n.d. @50 mg/kg
DLT@QD dosing [6]: n.d. @50 mg/kg
HRD in vivo @BID [6]: 50 mg/kg
HRD in vivo @QD [6]: 50 mg/kg

— patent US20230348453A1, “HALOGENATED-HETEROARYL AND OTHER HETEROCYCLIC KINASE INHIBITORS, AND USES THEREOF” (iOmx Therapeutics AG, priority 2020, published 2023)
